What was measured:
[1] = Lipophilic-hydrophilic balance, Rm of the compound by partition chromatography; type: physicochemical
Bos taurus = organism: Bos taurus; assay: Displacement of ethidium from calf thymus DNA by fluorimetric method
[2] = Displacement of ethidium from poly[d(A-T)]-poly[d(A-T)] DNA by fluorimetric method
Mus musculus = assay: Toxicity in ip dosed C3H X DBA2 F1 hybrid mouse […] with mouse L1210 cells on day 0 and dosed once daily on days 1 to 5 measured after 50 days; type: organism-based; settings: in vivo, 1200 h
L1210 [3] = assay: Antitumor activity against mouse L1210 cells […] in ip dosed C3H X DBA2 F1 hybrid mouse on day 0 and dosed at LD10 level once daily on days 1 to 5 assessed as increase in life span relative to control; type: functional
[4] = Displacement of ethidium from poly[d(G-C)]-poly[d(G-C)] DNA (unknown origin) by fluorimetric method
L1210 [5] = assay: Antitumor activity against mouse L1210 cells […] in ip dosed C3H X DBA2 F1 hybrid mouse on day 0 and dosed once daily on days 1 to 5 assessed as increase in life span relative to control; type: functional

Compound	Rm [1]	C50 (Bos taurus)	C50 [2]	LD10 (Mus musculus)	log(ILSmax) (L1210 [3])	C50 [4]	D40 (L1210 [5])
CC[n+]1cccc2cc(NC(=O)c3ccc(-c4ccc(-c5ccc(-c6ccc(C(=O)Nc7ccc8c(ccc[n+]8CC)c7)cc6)cc5)cc4)cc3)ccc21.Cc1ccc(S(=O)(=O)[O-])cc1.Cc1ccc(S(=O)(=O)[O-])cc1	-0.1	0.3 µM	0.18 µM	31 mg/kg	2.16	0.61 µM	10.5 mg/kg
C[n+]1cccc(NC(=O)c2ccc(NC(=O)c3ccc(C(=O)Nc4ccc(NC(=N)NC(=N)N)cc4)cc3)cc2)c1.I.[I-]	-0.4	1.14 µM	0.77 µM	11 mg/kg	2.2	1.71 µM	1 mg/kg
C[n+]1cccc(NC(=O)c2ccc(NC(=O)c3ccc(C(=O)Nc4ccc(NC(=N)N)cc4)cc3)cc2)c1.I.[I-]	-0.12	1.38 µM	0.91 µM	8 mg/kg	2.18	2.07 µM	0.2 mg/kg
C[n+]1cc(-c2ccc(NC(=O)c3ccc(Nc4cc[n+](C)c5ccc(N)cc45)cc3N)cc2)c(N)nc1N.Cc1ccc(S(=O)(=O)[O-])cc1.Cc1ccc(S(=O)(=O)[O-])cc1	-0.25	0.62 µM	0.11 µM	75 mg/kg	2.41	1.08 µM	4.4 mg/kg
C[n+]1cccc2cc(NC(=O)c3ccc(C(=O)Nc4ccc(NC(=O)c5ccc6c(ccc[n+]6C)c5)cc4)cc3)ccc21.Cc1ccc(S(=O)(=O)[O-])cc1.Cc1ccc(S(=O)(=O)[O-])cc1	-0.57	0.3 µM	0.35 µM	90 mg/kg	1.65	0.8 µM	80 mg/kg
C/C(=N\NC(=N)N)c1ccc(NC(=O)Nc2ccc(Nc3c4ccccc4[n+](C)c4cc(N)ccc34)cc2)cc1.Cl.[Cl-]	0.69	0.13 µM	0.09 µM	22 mg/kg	2.55	0.2 µM	0.3 mg/kg
C(=C\c1ccc(-[n+]2ccccc2)cc1)/c1ccc(/C=C/c2ccc(-[n+]3ccccc3)cc2)cc1.Cc1ccc(S(=O)(=O)[O-])cc1.Cc1ccc(S(=O)(=O)[O-])cc1	0.05	0.76 µM	0.2 µM	7 mg/kg	1.95	2.1 µM	1.6 mg/kg
C/C(=N\NC(=N)N)c1ccc(NC(=O)c2ccc(Nc3cc[n+](C)c4cc(N)ccc34)cc2)cc1.Cc1ccc(S(=O)(=O)O)cc1.Cc1ccc(S(=O)(=O)[O-])cc1	-0.36	0.53 µM	0.19 µM	31 mg/kg	2.2	1 µM	4 mg/kg
COc1ccc2c(c1)c(Nc1ccc(C(=O)Nc3ccc(Nc4cc[n+](C)cc4)cc3)cc1)cc[n+]2C.Cc1ccc(S(=O)(=O)[O-])cc1.Cc1ccc(S(=O)(=O)[O-])cc1	0.46	0.68 µM	0.19 µM	50 mg/kg	2.2	1.15 µM	1.5 mg/kg
C[n+]1ccc(Nc2ccc(C(=O)Nc3ccc(Nc4cc[n+](C)c5ccc(N)cc45)cc3)c(N)c2)cc1.[Br-].[Br-]	-0.3	0.6 µM	0.15 µM	20 mg/kg	2.43	0.91 µM	1 mg/kg
Cc1ccc(S(=O)(=O)[O-])cc1.Cc1ccc(S(=O)(=O)[O-])cc1.Cc1cccc2c(Nc3ccc(C(=O)Nc4ccc(Nc5cc[n+](C)cc5)cc4)cc3)cc[n+](C)c12	0.51	0.87 µM	0.31 µM	60 mg/kg	2.02	2.01 µM	12 mg/kg
Cc1ccc(S(=O)(=O)[O-])cc1.Cc1ccc(S(=O)(=O)[O-])cc1.Cc1ccc2c(c1)c(Nc1ccc(C(=O)Nc3ccc(Nc4cc[n+](C)cc4)cc3)cc1)cc[n+]2C	0.51	1.05 µM	0.17 µM	15 mg/kg	2.17	2.28 µM	1 mg/kg
C[n+]1ccc(Nc2ccc(C(=O)Nc3ccc(Nc4cc[n+](C)c5ccc(N)cc45)cc3)cc2)cc1.Cc1ccc(S(=O)(=O)[O-])cc1.Cc1ccc(S(=O)(=O)[O-])cc1	0.05	0.6 µM	0.12 µM	11 mg/kg	2.3	1.2 µM	1.2 mg/kg
C[n+]1cccc2ccc(NC(=O)c3ccc(-c4ccc(-c5ccc(-c6ccc(C(=O)Nc7ccc8ccc[n+](C)c8c7)cc6)cc5)cc4)cc3)cc21.Cc1ccc(S(=O)(=O)[O-])cc1.Cc1ccc(S(=O)(=O)[O-])cc1	-0.57	0.17 µM	0.14 µM	52 mg/kg	1.85	0.28 µM	20 mg/kg
C[n+]1ccc(-c2ccc(-c3ccc(-c4ccc(/N=N/Nc5ccc(C(=O)Nc6ccc(-c7ccc(-c8ccc(-c9cc[n+](C)cc9)cc8)cc7)cc6)cc5)cc4)cc3)cc2)cc1.Cc1ccc(S(=O)(=O)[O-])cc1.Cc1ccc(S(=O)(=O)[O-])cc1	-0.22	0.83 µM	0.1 µM	6 mg/kg	2.34	0.38 µM	1.4 mg/kg
C[n+]1ccc(Nc2ccc(C(=O)Nc3ccc(Nc4c5ccccc5[n+](C)c5cc(N)ccc45)cc3)cc2)cc1.[Cl-].[Cl-]	0.47	0.11 µM	0.06 µM	37 mg/kg	2.23	0.16 µM	2 mg/kg
Br.C/C(=N\NC(=N)N)c1ccc(NC(=O)c2ccc(Nc3cc[n+](C)c4ccc(N)cc34)cc2)cc1.[Br-]	-0.45	0.4 µM	0.11 µM	28 mg/kg	2.31	0.5 µM	2.1 mg/kg
C[n+]1ccc(Nc2ccc(NC(=O)c3ccc(Nc4cc[n+](C)c5cc(N)ccc45)cc3)cc2)cc1.[Br-].[Br-]	0.08	0.68 µM	0.23 µM	11 mg/kg	2.11	1.4 µM	2 mg/kg
Br.C/C(=N\NC(=N)N)c1ccc(C(=O)Nc2ccc(Nc3cc[n+](C)c4cc(N)ccc34)cc2)cc1.[Br-]	-0.35	0.35 µM	0.17 µM	165 mg/kg	2.28	0.6 µM	30 mg/kg
C[n+]1ccc(Nc2ccc(NC(=O)c3ccc(Nc4c(-c5ccccc5)c[n+](C)c5ccc(N)cc45)cc3)cc2)cc1.[Br-].[Br-]	0.65	0.39 µM	0.15 µM	22 mg/kg	1.78	0.63 µM	10 mg/kg
CC[n+]1ccc(Nc2ccc(NC(=O)c3ccc(Nc4cc[n+](CC)c5ccccc45)cc3)cc2)cc1.[Br-].[Br-]	0.54	2 µM	0.19 µM	15 mg/kg	2.07	3.1 µM	2.8 mg/kg
Cc1cc(C(=O)Nc2ccc(C(=O)Nc3ccc[n+](C)c3)cc2)ccc1C(=O)Nc1ccc(C(=O)Nc2ccc[n+](C)c2)cc1.Cc1ccc(S(=O)(=O)[O-])cc1.Cc1ccc(S(=O)(=O)[O-])cc1	0.06	1.2 µM	1 µM	14 mg/kg	2.09	2.4 µM	5.7 mg/kg
C[n+]1cccc(NC(=O)c2ccc(NC(=O)c3cccc(C(=O)Nc4ccc(C(=O)Nc5ccc[n+](C)c5)cc4)c3)cc2)c1.Cc1ccc(S(=O)(=O)[O-])cc1.Cc1ccc(S(=O)(=O)[O-])cc1	0.2	0.9 µM	1.2 µM	35 mg/kg	1.85	1.9 µM	25 mg/kg
Br.C/C(=N\NC(=N)N)c1ccc(NC(=O)c2ccc(Nc3cc[n+](C)c4ccccc34)cc2)cc1.[Br-]	-0.07	0.78 µM	0.39 µM	33 mg/kg	1.91	1.04 µM	13 mg/kg
C[n+]1cccc(NC(=O)c2ccc(NC(=O)c3ccc(C(=O)Nc4ccc(Nc5cc[n+](C)c6ccc(N)cc56)cc4)cc3)cc2)c1.Cc1ccc(S(=O)(=O)[O-])cc1.Cc1ccc(S(=O)(=O)[O-])cc1	-0.47	0.31 µM	0.22 µM	140 mg/kg	1.95	0.34 µM	22.1 mg/kg
COc1cc(C(=O)Nc2ccc(C(=O)Nc3ccc[n+](C)c3)cc2)ccc1C(=O)Nc1ccc(C(=O)Nc2ccc[n+](C)c2)cc1.Cc1ccc(S(=O)(=O)[O-])cc1.Cc1ccc(S(=O)(=O)[O-])cc1	0.23	0.64 µM	0.64 µM	18 mg/kg	1.72	1.51 µM	10.3 mg/kg
CCC[n+]1cccc(NC(=O)c2ccc(NC(=O)c3ccc(C(=O)Nc4ccc(C(=O)Nc5ccc[n+](CCC)c5)c(N)c4)c(N)c3)cc2N)c1.Cc1ccc(S(=O)(=O)[O-])cc1.Cc1ccc(S(=O)(=O)[O-])cc1	-0.51	0.26 µM	0.08 µM	10 mg/kg	2.1	0.48 µM	2.2 mg/kg
